{"source": "patent US20070071792A1", "about": "“In VIVO formed matrices including natural biodegradale polysaccharides and ophthalmic uses thereof” (priority 2005, published 2007)", "key": {"PC-12 cells": {"system": "PC-12 cells", "experiment": "Cell viability within polyalditol-acrylate redox components (Live/Dead Viability/Cytotoxicity Kit)", "conditions": "15 min", "procedure": "Cell suspensions were prepared as follows: PC-12 cells (ATCC; passage 5; 75% confluency) were harvested from a T-75 flask using Trypsin-EDTA for 2 minutes. The cells were placed in a 15 mL polyethylene conical (VWR) and centrifuged in F-12k media without serum for 4 minutes at 500 rpm. The cells were counted using a hemocytometer, centrifuged for 4 minutes at 500 rpm, and resuspended at 600,000 cells/mL in sterile PBS.\nIn order to determine the effect of individual components of the matrix forming compositions on cell viability, solutions A-G were independently mixed with PC-12 cells. 50 uL of cell suspension was added to 350 uL of solutions A-G (Table 7). After a 15 minute incubation, cell viability was assessed using a Live/Dead™ Viability/Cytotoxicity Kit (cat.# L3224; Molecular Probes, Eugene, Oreg.).\nThe effect of a formed matrix on cell viability was also tested. To form the PD-A matrix, solution #1 (200 mg PD-A, 10 uL TEMED, 20 uL 1N HCl, 470 uL PBS) was added in the amount of 200 uL to a 1.6 ml eppendorf (VWR). Solution #2 (400 mg PD-A, 10 mg Potassium persulfate, 75K PC-12 cells, 500 uL PBS) was added in the amount of 200 uL to solution #1 in the eppendorf and mixed for 10 seconds. After a 15 minute incubation, cell viability was assessed using the Live/Dead™ Viability/Cytotoxicity Kit."}}, "data": [{"smiles": "O=C(O)/C=C\\C(=O)NCCCCCC(=O)O", "values": [{"measurement": "melting point", "result": "160 to 165", "unit": "°C"}]}, {"smiles": "N.N.O=S(=O)(O)OOS(=O)(=O)O", "note": "[Ammonium persulfate]", "values": [{"measurement": "Cell viability (%)", "setting": "PC-12 cells; 10 mg/ml in PBS", "result": 90, "unit": "%"}, {"measurement": "Cell viability (%)", "setting": "PC-12 cells; 120 mg/ml in PBS", "result": 90, "unit": "%"}]}, {"smiles": "O=S(=O)([O-])OOS(=O)(=O)[O-].[K+].[K+]", "note": "[Potassium persulfate]", "values": [{"measurement": "Cell viability (%)", "setting": "PC-12 cells; 10 mg/ml in PBS", "result": 90, "unit": "%"}]}, {"smiles": "O=S(=O)([O-])OOS(=O)(=O)[O-].[Na+].[Na+]", "note": "[Sodium persulfate]", "values": [{"measurement": "Cell viability (%)", "setting": "PC-12 cells; 5 mg/ml in PBS", "result": 90, "unit": "%"}]}]}
